From patent publication US10882860B2, “Treatment of osteoarthritis” (Samumed, LLC, priority 2015, dated 2021) come the findings set out here.

In experiment [1] the test system is rat models of osteoarthritis (ACLT and pMMx). Nature of the experiment: Efficacy of suspension compositions compared to a solution composition in rat OA model. It is filed as in vivo, rats. On the procedure:
The efficacy of suspension compositions of the compound of Formula (I) (Form 1) as compared to a solution composition of the compound of Formula (I) in rat models of osteoarthritis (OA) was determined using a solution (final IA dose of 3 μg solution) and 0.1 μg and 0.3 μg suspension compositions of the compound of Formula (I) (Form 1).
The rats were treated with final dose levels of either a 0.1 μg or 0.3 μg suspension or a 3 μg solution of the compound of Formula (I). Histology score of cartilage integrity in the knee was the readout.

A further experiment concerns Human MSCs. Kind of experiment: Alcian Blue, Safranin O, and Type II collagen staining. In kind it is cell-based. The note with it: 14 or 21 days; compared to control. Here is the method:
Human MSCs were plated in 96-well plates in chondrogenic induction medium (Lonza; DMEM, dexamethasone, ascorbate, insulin-transferrin-selenium [ITS supplement], gentamycin-amphotericin [GA-1000], sodium pyruvate, proline and L-glutamine) and treated with the compound of Formula (I) in DMSO or TGFβ3 (20 μg/mL) as a positive control. Cells were incubated at 37° C., 5% CO2 for either 14 or 21 days, with media changes every 5 days. The cells were fixed using 4% formaldehyde (Electron Microscopy Sciences). For Alcian Blue staining, cells were incubated with 10 mg/mL Alcian Blue (Sigma-Aldrich) in 3% acetic acid (Sigma-Aldrich), pH 2.5 for 30 minutes, washed with PBS, and imaged using a light microscope (Life Technologies) at 10× magnification. For Safranin O staining, cells were incubated with 0.1% Safranin O (Sigma-Aldrich) in distilled water for 5 minutes, washed with PBS and imaged using a light microscope (Life Technologies) at 10× magnification. For Type II collagen staining, cells were incubated with primary antibody in 3% BSA, 0.3% Triton X-100 in PBS with overnight incubation at […]. Cells were then washed and incubated with fluorophore-linked secondary antibody and DAPI (Life Technologies) for 1 hr at room temperature. Cells were washed and imaged using EVOS FL Microscope (Life Technologies).

Experiment [2] concerns Wnt genes TCF7, c-Myc, Axin-2, Ascl 2, and SP5. Kind of experiment: In vitro Wnt pathway inhibition, qRT-PCR in human MSCs. In kind it is cell-based. The note with it: 30 nM; 48 hours; fold change vs DMSO; FIG. 15. Here is the method: Human mesenchymal stem cells (MSCs) were plated in 6-well plates in chondrogenic induction medium (Lonza; DMEM, dexamethasone, ascorbate, insulin-transferrin-selenium [ITS supplement], gentamycin-amphotericin [GA-1000], sodium pyruvate, proline and L-glutamine) and treated with the compound of Formula (I) (30 nM) in DMSO or TGF-β3 (20 μg/mL) as a positive control. Cells were incubated at 37° C., 5% CO2 for 48 hours. Cells were pelleted and washed, and total RNA was isolated and purified using RNeasy Plus Mini Kit (Qiagen). cDNA was synthesized from 1 μg of total RNA using QuantiTect Reverse Transcription kit (Qiagen). qRT-PCR was performed with QuantiTect SYBR Green PCR Kit (Qiagen) and gene-specific primers, using CFX384 thermal cycler (Biorad). Transcripts were quantitated by comparative Ct method and normalized to endogenous controls, β-actin and GAPDH. Fold changes were normalized to DMSO treated cells.

Experiment [3] deals with protease expression (MMP1, MMP3, MMP13). Nature of the experiment: Inhibition of protease release (qRT-PCR, TNF-α + Oncostatin M stimulated chondrocytes). In kind it is cell-based, human. The note with it: 72 hours, FIGS. 19A-C. On the procedure:
Human MSCs were plated in 10 cm dishes in chondrogenic induction medium (Lonza; DMEM, dexamethasone, ascorbate, insulin-transferrin-selenium [ITS supplement], gentamycin-amphotericin [GA-1000], sodium pyruvate, proline and L-glutamine) and treated with TGF-β3 (20 μg/mL) to induce chondrogenic differentiation. Cells from 4 dishes were pooled and re-plated in 24-well plates in Chondrogenic Induction Medium and treated with various concentrations of the compound of Formula (I). 4 hours later, MMP production was stimulated by adding TNF-α (20 μg/mL)+Oncostatin M (10 ng/mL) and cells were incubated at 37° C., 5% CO2 for 72 hours. Cells were then pelleted and washed, and total RNA was isolated and purified using RNeasy Plus Mini Kit (Qiagen). cDNA was synthesized from 1 μg of total RNA using QuantiTect Reverse Transcription kit (Qiagen). qRT-PCR was performed with QuantiTect SYBR Green PCR Kit (Qiagen) and gene-specific primers, using CFX384 thermal cycler (Biorad). Transcripts were quantitated by comparative Ct method, and normalized to endogenous controls, β-actin and GAPDH. Fold changes were normalized to unstimulated cells. […] FIG. 19A depicts MMP1 production. FIG. 19B depicts MMP3 production. FIG. 19C depicts MMP13 production.

Consider `CC(C)CC(=O)Nc1cncc(-c2ccc3[nH]nc(-c4nc5c(-c6cccc(F)c6)cncc5[nH]4)c3c2)c1` [compound of Formula (I)], for which the “histology score of cartilage integrity in the knee (vs. vehicle)” value is listed as “beneficial effect” in experiment [1] (0.1 μg suspension, 3 months, did not reach statistical significance); “significant difference” in experiment [1] (0.3 μg suspension, 3 months); “beneficial effect” in experiment [1] (3 μg solution, 2 months, did not reach statistical significance). Also, the “chondrogenesis (Alcian Blue, Safranin O, Type II collagen staining)” value with Human MSCs was “increased amount of chondrogenesis”. The “expression of Wnt genes TCF7, c-Myc, Axin-2, Ascl 2, and SP5” value in experiment [2] is “downregulation”. For the same compound, in experiment [3], the “protease expression (MMP1, MMP3, MMP13)” value is “dose-dependent inhibition”.
